For data set [1] the following is noted: for Above MIC in Saliva (Y/N): concentration in saliva at any time above MIC relative to Porphyromonas gingivalis.
Experimental: (§1) Ten volunteers chewed 2.7 grams samples of each gum formulation and provided saliva samples at intervals and the gum bolus at the end of the 25 minute chewing period. High pressure liquid chromatography and gas chromatography were used to analyze the gum bolus and saliva non-volatile and volatile components, respectively.
(§2) Saliva samples were collected from each of the individuals prior to chewing 2.7 grams of gum, and at 1.0, 2.5, 5.0, 10.0, and 25.0 minutes while chewing the gum. The saliva samples were refrigerated until analysis. The gum bolus that remained after 25 minutes was saved and extracted immediately or stored refrigerated until extraction for analysis.
(§3) Samples were Vortex-mixed in Multi-tube vortex mixer for one minute and then centrifuged at top speed in clinical centrifuge for two minutes. Supernatants were carefully transferred to 1 milliliter glass shell vials and capped. Analysis was carried out either by isocratic elution for glabridin-only samples, or gradient elution for the samples containing the glycyrrhizic and 18β-glycyrrhetinic acids using high pressure liquid chromatography. Glabridin concentrations were converted to GLY concentrations by taking the weight percent glabridin in GLY to be 2.74 percent.
(§4) The calibration curve was prepared using spiked blank saliva.
(§5) For saliva, the essential oils of menthol, cedarwood oil, geraniol and Rosmarinus officianalis were determined by capillary gas chromatography. The split ratio was 25:1. The injection volume was 2 μL. Four hundred μL of saliva was extracted from the 1 milliliter of ethyl acetate containing an internal standard (hexadecane) in 1.5 milliliter Eppendorf tubes. After centrifugation, the organic layer was injected directly into the Hewlett-Packard 6890 gas chromatograph. […] For this reason, only the samples from 0 to 10 minutes were analyzed. A cleanup gradient was run from 190 to 300° C. every fifth sample to remove less volatile interferences from the column.
Data set [2] is classed as in vivo, human volunteers. Particulars: in vivo. The protocol: The saliva samples were refrigerated until analysis.
To either 2.7 grams unchewed gum sample or the remaining bolus of chewed gum, was added 3.0 millileters of internal standard (Hesperetin) in methanol, 6.0 milliliters hexane and 3.0 milliliters distilled water. Samples were homogenized using a Polytron Homogenizer model PT10/35 from Brinkmann Instruments, fitted with a PTA10TS generator for at least 30 seconds on ice, or until no lumps of non-dispersed gum were visible in the sample. Samples were then centrifuged in a Dynac Tabletop Centrifuge at top speed for ten minutes. The lower, amber, aqueous/methanol layer were then filtered through 25 millimeter, 0.45 micrometer nylon Acrodisc syringe filters from Gelman into 4 milliliter autosampler vials and tightly capped with polytetrafluorothylene lined septum in open-top screw caps. These samples were then analyzed using high pressure liquid chromatography for glabridin and/or glycyrrhizic and 18β-glycyrrhetinic acid, and were quantitated against a 4-point linear curve prepared by spiking approximately 2.7 grams unchewed samples of Wrigley Extra Sugarfree Peppermint gum with known levels of purified glabridin, glycyrrhizic acid monoammonium salt and 18β-glycyrrhetinicacid.
For the analysis of the gum bolus, both chewed and unchewed, a Polytron Homogenizer, described above was used. The gum sample was placed in a heavy wall glass tube. Internal standard ([…]) ethyl acetate ([…]) and water ([…]) were added. The sample was homogenized for approximately 30 seconds, or until no particles could be seen. The tubes were then centrifuged for 10 minutes on a clinical centrifuge at maximum speed. The supernatant was injected directly onto the gas chromatograph. The oven program was modified to allow resolution of ROF1 components from those of the peppermint flavoring. The gas chromatograph was calibrated using a three point standard curve to quantify the following components: menthol (flavor); geraniol (oil geraniol); cedrene, thujopsene (RC1); pinene, cineol, camphor, bornyl acetate (ROF1). The initial temperature was decreased from 140° C. to 100° C. The temperature gradient was changed from 10° C./minute to 4° C./minute. The split ratio was 50:1, and injection volume was 1 μL as per the method. A cleanup gradient was run every fifth sample as described previously.
A recovery study was performed in triplicate using blank Wrigley's Peppermint Gum (chewed and unchewed) spiked with stand and solution. Recovery was calculated relative to a direct standard consisting of spike solution without sample matrix.

The nature of data set [3]: clinical. The conditions noted are these: human, in vivo.
Experimental: as §1, §2, §3, §4, §5

Counter-ions that a name gives are not always drawn.

`CC1(C)[C@@H](O)CC[C@]2(C)[C@H]3C(=O)C=C4[C@@H]5C[C@@](C)(C(=O)O)CC[C@]5(C)CC[C@@]4(C)[C@]3(C)CC[C@@H]12` [GA, 18β-Glycyrrhetinic acid]: the “Above MIC in Saliva (Y/N)” value in data set [1] is recorded as “No”. Besides, in data set [2], the “Release from Chewed Gum Bolus after 25 min” value is 15%. Moreover, in data set [3], the concentration at 1 min turned out to be 1.8 µg/mL, the concentration at 2.5 min was 1.5 µg/mL, the concentration at 5 min was 1.6 µg/mL and the concentration at 10 min is 1.8 µg/mL. The molecule further returned a concentration at 25 min in data set [3] of 2.3 µg/mL.

`CC1(C)[C@@H](O[C@H]2O[C@H](C(=O)O)[C@@H](O)[C@H](O)[C@H]2O[C@@H]2O[C@H](C(=O)O)[C@@H](O)[C@H](O)[C@H]2O)CC[C@]2(C)[C@H]3C(=O)C=C4[C@@H]5C[C@@](C)(C(=O)O)CC[C@]5(C)CC[C@@]4(C)[C@]3(C)CC[C@@H]12` [GR, Glycyrrhizic Acid, Monoammonium salt]: the “Above MIC in Saliva (Y/N)” value in data set [1] is on record as “Yes”. Moreover, the “Rate of release from gum” value in data set [1] (human, in vivo) is “released from a gum base less quickly and over a longer period of time”. Moreover, the “Maintenance of concentration in oral cavity above MIC” value in data set [1] (in words, released from a gum composition) was “maintain a concentration in the oral cavity at a level above the MIC”. In addition, the “Release from Chewed Gum Bolus after 25 min” value in data set [2] is 85%. In data set [3], the concentration at 1 min turned out to be 3100 µg/mL, the concentration at 2.5 min worked out at 111 µg/mL, the concentration at 5 min worked out at 55 µg/mL and the concentration at 10 min was found to be 30 µg/mL. For the same molecule, the concentration at 25 min in data set [3] was 10 µg/mL.

The values above are taken from patent publication US6248309A, “Gums containing antimicrobial agents” (priority 1999, dated 2001).
